Source: US20220162558A1, “METHOD FOR INDUCING DIFFERENTIATION OF STEM CELLS INTO CHONDROCYTES BY USING OLIGOPEPTIDES” (POSTERA HEALTH SCIENCE Inc., priority 2019, published 2022)
Entries after “also recorded” stand apart in the source; their conditions may differ.

Key:
Type in all cases: cell-based
[1] = system: tonsil-derived mesenchymal stem cells (TMSCs); assay: 3D pellet culture: biomarker mRNA expression by real-time RT-PCR; conditions: tripeptide 10 μM, 3D pellet culture in chondrogenic medium
Procedure: (§1) Tonsil-derived mesenchymal stem cells (passage 6) were enzymatically detached by trypsin treatment and counted by a hemocytometer. The tube was centrifuged in 500-g relative centrifugal force (RCF) for 10 minutes and incubated at 37° C. under 5% carbon dioxide for 24 hours. A cell pellet consisting of about 3.0×10^5 cells was formed in a conical polypropylene tube (15 mL). The FBS-containing growth medium was replaced by medium A containing a high-glucose DMEM supplemented with 1.0% (v/v) antibiotic/antimitotic solution, 1.0% (v/v) penicillin/streptomycin solution, 50 μg/mL ascorbate-2-phosphate, 40 μg/mL L-proline, and 1% ITS+Premix (final concentration: 10 μg/mL bovine insulin, 5.5 μg/mL transferrin, 5 μg/mL sodium selenite, 4.7 μg/mL linoleic acid, and 0.5 mg/mL BSA), and 100 nM dexamethasone. Pellets were cultured at 37° C. under 5% carbon dioxide for 21 days under the following three different conditions: 1) medium A only, 2) medium A supplemented with kartogenin, or 3) medium A supplemented with each tripeptides. Each medium was replaced every three days. Triplicate experiments were carried out for each system.
(§2) Total RNA was extracted from the cells by using a TRIZOL™ reagent (Invitrogen, USA). The mRNA concentration was assayed by Nano Drop 2000 spectrophotometer (Thermo Scientific, USA). cDNA was synthesized by ReverTra Ace® qPCR RT kit (Toyobo, Japan). mRNA expression levels were analyzed by real-time RT-PCR (CFX96™, Bio-Rad, USA) using IQ™ SYBR® Green Supermix (Bio-Rad, USA). The expression levels of target genes were calculated as 2^−ΔΔCt by the following calculation equation, and the primer sequences are shown in Table 1 below.
(§3) ΔΔCt=(gene A−GAPDH)−(gene A−GAPDH)control
The medium was supplemented with each tripeptide (10 μM), and tonsil-derived mesenchymal stem cells (size: ˜ mm) were prepared. Chondrogenic medium without tripeptide was used as control experiment. Medium supplemented with kartogenin (target molecule) instead of tripeptide was used for the purpose of comparing chondrogenic differentiation of tonsil-derived mesenchymal stem cells.

[2] = system: tonsil-derived mesenchymal stem cells (TMSCs); assay: First-round screening: chondrogenic biomarker mRNA expression by real-time RT-PCR in 2D culture; conditions: tripeptide 10 μM, serum-free medium, after 7 days of incubation
Procedure: The medium was replaced every three days.
as §2, §3

[3] = system: COL II in tonsil-derived mesenchymal stem cells; assay: Immunofluorescence assay of COL II protein in sectioned 3D pellets; conditions: 3D pellet culture, compared with control system and WFE- or WLE-treated system
Procedure: as §1, with “Triplicate experiments were carried out for each system.” left out
The stem cell pellets were fixed in formalin aqueous solution (10% v/v) and embedded in paraffin. […] Then, the sectioned cell pellet samples were deparaffinized by xylene, and analyzed by immunofluorescence using antibody, alcian blue staining, and safranin O staining to visualize COL II, sGAG and proteoglycan, respectively. […]

[4] = system: sGAG in tonsil-derived mesenchymal stem cells; assay: Alcian blue staining of sectioned 3D pellets; conditions: 3D pellet cultured 21 days, sections of 7 μm
Procedure: as §1

[5] = system: proteoglycan in tonsil-derived mesenchymal stem cells; assay: Safranin O staining of sectioned 3D pellets; conditions: 3D pellet cultured 21 days, sections of 7 μm
Procedure: as §1

Row | Molecule | chondrogenic mRNAs of COL II, COMP and ACAN, expression [1] | chondrogenic biomarker expression at mRNA level (COL II, SOX 9, COMP) [2] | COL II at protein level, red staining by immunofluorescence [3] | expression levels of COL X and COL I α2 relative to control system ([1]; hypertrophy / osteogenic biomarkers) | sGAG, alcian blue staining [4] | proteoglycan, safranin O staining [5]
1 | tryptophan-phenylalanine-glutamic acid [WFE] | highly expressed | enhanced |  |  |  | 
2 | O=C(O)c1ccccc1C(=O)Nc1ccc(-c2ccccc2)cc1 [kartogenin, reference compound] |  |  | distinguished for their red staining by COL II |  |  | 
3 | tyrosine-tyrosine-glutamic acid [YYE] | highly expressed | enhanced; also recorded: good promoter comparable to kartogenin | distinguished for their red staining by COL II | less than half of the control system | upregulated | upregulated
4 | tryptophan-leucine-glutamic acid [WLE] | highly expressed | enhanced |  |  |  | 
